Molecular target: T1, GST-tagged truncated human mutant G2019S LRRK2 (Homo sapiens, UniProt Q5S007, G2019S)
T1 construct: GST-tagged truncated human mutant G2019S LRRK2; purchased Life Technologies Corporation (Carlsbad, CA)
Test: LRRK2 G2019S Km ATP LanthaScreen assay
Assay type: biochemical
Conditions: 134 μM ATP (Km ATP), LRRKtide substrate, mean of several tests, read-out: LRRK2 pIC50 (converted)
Summary of the method: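 IC50 values are means of repeat runs, fitted with a 4-parameter logistic to the 520/495 nm TR-FRET ratio from a Tb-labeled anti-phospho-LRRKtide antibody added with EDTA. Reactions ran 90 min at room temperature at Km ATP (134 μM) with fluorescein-LRRKtide, after 15-min compound preincubation with truncated GST-tagged G2019S LRRK2.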

T1 sequence (Q5S007 970-2527 G2019S limits assumed): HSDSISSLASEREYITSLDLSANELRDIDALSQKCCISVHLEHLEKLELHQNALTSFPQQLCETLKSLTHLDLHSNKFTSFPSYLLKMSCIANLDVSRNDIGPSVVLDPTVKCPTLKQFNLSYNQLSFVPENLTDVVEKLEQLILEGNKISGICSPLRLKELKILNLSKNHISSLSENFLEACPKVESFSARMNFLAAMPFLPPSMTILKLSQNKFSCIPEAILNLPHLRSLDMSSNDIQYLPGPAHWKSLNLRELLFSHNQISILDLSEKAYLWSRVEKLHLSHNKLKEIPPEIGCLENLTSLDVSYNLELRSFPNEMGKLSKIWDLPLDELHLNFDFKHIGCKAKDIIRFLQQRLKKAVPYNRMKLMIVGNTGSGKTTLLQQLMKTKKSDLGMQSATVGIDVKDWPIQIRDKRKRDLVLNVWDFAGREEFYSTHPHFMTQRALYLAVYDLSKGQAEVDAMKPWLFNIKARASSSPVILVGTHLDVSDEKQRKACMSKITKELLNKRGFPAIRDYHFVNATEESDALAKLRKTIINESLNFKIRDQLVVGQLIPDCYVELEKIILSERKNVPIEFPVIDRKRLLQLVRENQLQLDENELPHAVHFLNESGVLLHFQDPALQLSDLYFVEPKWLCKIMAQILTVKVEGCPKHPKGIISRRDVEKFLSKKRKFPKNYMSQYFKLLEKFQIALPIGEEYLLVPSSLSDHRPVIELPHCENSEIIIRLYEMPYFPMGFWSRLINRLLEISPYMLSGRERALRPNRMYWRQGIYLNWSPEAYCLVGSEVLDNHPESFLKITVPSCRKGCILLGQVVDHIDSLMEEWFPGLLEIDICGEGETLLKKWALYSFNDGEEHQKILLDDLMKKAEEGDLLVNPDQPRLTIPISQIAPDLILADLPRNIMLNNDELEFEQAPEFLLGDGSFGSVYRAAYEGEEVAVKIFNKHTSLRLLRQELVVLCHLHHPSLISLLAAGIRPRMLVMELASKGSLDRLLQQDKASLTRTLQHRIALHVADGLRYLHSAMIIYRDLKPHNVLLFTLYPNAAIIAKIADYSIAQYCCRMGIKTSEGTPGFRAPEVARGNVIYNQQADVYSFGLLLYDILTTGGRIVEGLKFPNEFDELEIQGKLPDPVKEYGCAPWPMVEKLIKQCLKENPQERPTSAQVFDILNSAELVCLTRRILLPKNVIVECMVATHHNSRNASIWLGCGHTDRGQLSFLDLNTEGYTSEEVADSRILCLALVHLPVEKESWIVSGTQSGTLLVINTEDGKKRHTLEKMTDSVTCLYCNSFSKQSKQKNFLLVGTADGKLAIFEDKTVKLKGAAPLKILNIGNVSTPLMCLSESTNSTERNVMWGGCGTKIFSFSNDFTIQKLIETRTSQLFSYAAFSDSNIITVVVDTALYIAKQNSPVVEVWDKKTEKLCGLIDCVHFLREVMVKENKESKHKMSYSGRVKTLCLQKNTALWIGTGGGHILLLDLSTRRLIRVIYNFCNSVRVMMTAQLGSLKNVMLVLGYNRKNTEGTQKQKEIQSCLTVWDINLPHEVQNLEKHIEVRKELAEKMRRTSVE

CC1(C2CCOC2)CC1C(=O)Nc1cc2cc(N3CCN(C4(C)COCC4O)CC3)c(Cl)cc2cn1 (single isomer, unassigned) [Ex-10.85, (1R,2R or 1S,2S, or 1R,2S, or 1S,2R)-N-[7-chloro-6-[4-((3R,4R or 3S,4S)-4-hydroxy-3-methyl-tetrahydrofuran-3-yl)piperazin-1-yl]-3-isoquinolyl]-2-methyl-2-tetrahydrofuran-3-yl-cyclopropanecarboxamide]
IC50: 0.0813 nM

CC1(C2CCOC2)CC1C(=O)Nc1cc2cc(N3CCN(C4(C)COCC4O)CC3)c(Cl)cc2cn1 (single isomer, unassigned) [Ex-10.86, (1R,2R or 1S,2S, or 1R,2S, or 1S,2R)-N-[7-chloro-6-[4-((3R,4R or 3S,4S)-4-hydroxy-3-methyl-tetrahydrofuran-3-yl)piperazin-1-yl]-3-isoquinolyl]-2-methyl-2-tetrahydrofuran-3-yl-cyclopropanecarboxamide]
IC50: 0.0813 nM

CC1(C2CCOC2)CC1C(=O)Nc1cc2cc(N3CCN(C4(C)COCC4O)CC3)c(Cl)cc2cn1 (single isomer, unassigned) [Ex-10.87, (1R,2R or 1S,2S, or 1R,2S, or 1S,2R)-N-[7-chloro-6-[4-((3R,4R or 3S,4S)-4-hydroxy-3-methyl-tetrahydrofuran-3-yl)piperazin-1-yl]-3-isoquinolyl]-2-methyl-2-tetrahydrofuran-3-yl-cyclopropanecarboxamide]
IC50: 0.0813 nM

CC1(C2CCOC2)CC1C(=O)Nc1cc2cc(N3CCN(C4(C)COCC4O)CC3)c(Cl)cc2cn1 (single isomer, unassigned) [Ex-10.88, (1R,2R or 1S,2S, or 1R,2S, or 1S,2R)-N-[7-chloro-6-[4-((3R,4R or 3S,4S)-4-hydroxy-3-methyl-tetrahydrofuran-3-yl)piperazin-1-yl]-3-isoquinolyl]-2-methyl-2-tetrahydrofuran-3-yl-cyclopropanecarboxamide]
IC50: 0.182 nM

CCC1C(C(=O)Nc2cc3cc(N4CCN(C5(C)COCC5F)CC4)c(Cl)cc3cn2)C1c1ccccn1 (single isomer, unassigned) [Ex-10.89, (1R,2R,3R, or 1R,2S,3R, or 1S,2R,3S, or 1S,2S,3S)-N-[7-chloro-6-[4-((3R,4R or 3S,4S)-4-fluoro-3-methyl-tetrahydrofuran-3-yl)piperazin-1-yl]-3-isoquinolyl]-2-ethyl-3-(2-pyridyl)cyclopropanecarboxamide]
IC50: 0.0813 nM

CCC1C(C(=O)Nc2cc3cc(N4CCN(C5(C)COCC5F)CC4)c(Cl)cc3cn2)C1c1ccccn1 (single isomer, unassigned) [Ex-10.90, (1R,2R,3R, or 1R,2S,3R, or 1S,2R,3S, or 1S,2S,3S)-N-[7-chloro-6-[4-((3R,4R or 3S,4S)-4-fluoro-3-methyl-tetrahydrofuran-3-yl)piperazin-1-yl]-3-isoquinolyl]-2-ethyl-3-(2-pyridyl)cyclopropanecarboxamide]
IC50: 2.04 nM

CC1(C)C(C(=O)Nc2cc3cc(N4CCN(C5(C)COCC5O)CC4)c(Cl)cc3cn2)C1C1CCCCO1 (single isomer, unassigned) [Ex-10.91, (1R,2R,3R, 1R,2S,3R, or 1S,2R,3S, or 1S,2S,3S)-N-[7-chloro-6-[4-((3R,4R or 3S,4S)-4-hydroxy-3-methyl-tetrahydrofuran-3-yl)piperazin-1-yl]-3-isoquinolyl]-2,2-dimethyl-3-tetrahydropyran-2-yl-cyclopropanecarboxamide]
IC50: 0.0813 nM

CC1(C)C(C(=O)Nc2cc3cc(N4CCN(C5(C)COCC5O)CC4)c(Cl)cc3cn2)C1C1CCCCO1 (single isomer, unassigned) [Ex-10.92, (1R,2R,3R, 1R,2S,3R, or 1S,2R,3S, or 1S,2S,3S)-N-[7-chloro-6-[4-((3R,4R or 3S,4S)-4-hydroxy-3-methyl-tetrahydrofuran-3-yl)piperazin-1-yl]-3-isoquinolyl]-2,2-dimethyl-3-tetrahydropyran-2-yl-cyclopropanecarboxamide]
IC50: 1.95 nM

CC1(c2ccccn2)CC1C(=O)Nc1cc2cc(N3CCN(C4(C)COCC4O)CC3)c(Cl)cc2cn1 (single isomer, unassigned) [Ex-11.1, (1R,2R)(3R,4R)— or (1R,2S)(3R,4R)— or (1S,2R)(3R,4R)— or (1S,2S)(3R,4R)— or (1R,2R)(3S,4S)— or (1R,2S)(3S,4S)— or (1S,2R)(3S,4S)— or (1S,2S)(3S,4S)-N-(7-chloro-6-(4-(4-hydroxy-3-methyltetrahydrofuran-3-yl)piperazin-1-yl)isoquinolin-3-yl)-2-methyl-2-(pyridin-2-yl)cyclopropane-1-carboxamide]
IC50: 0.0813 nM

CC1(c2ccccn2)CC1C(=O)Nc1cc2cc(N3CCN(C4(C)COCC4O)CC3)c(Cl)cc2cn1 (single isomer, unassigned) [Ex-11.2, (1R,2R)(3R,4R)— or (1R,2S)(3R,4R)— or (1S,2R)(3R,4R)— or (1S,2S)(3R,4R)— or (1R,2R)(3S,4S)— or (1R,2S)(3S,4S)— or (1S,2R)(3S,4S)— or (1S,2S)(3S,4S)-N-(7-chloro-6-(4-(4-hydroxy-3-methyltetrahydrofuran-3-yl)piperazin-1-yl)isoquinolin-3-yl)-2-methyl-2-(pyridin-2-yl)cyclopropane-1-carboxamide]
IC50: 45.7 nM

CC1C(C(=O)Nc2cc3cc(N4CCN(C5(C)COCC5O)CC4)c(Cl)cc3cn2)C1c1ccccn1 (single isomer, unassigned) [Ex-11.3, (1R,2R,3R, or 1R,2S,3R, or 1S,2R,3S, or 1S,2S,3S)-N-(7-chloro-6-(4-((3R,4R or 3S,4S)-4-hydroxy-3-methyltetrahydrofuran-3-yl)piperazin-1-yl)isoquinolin-3-yl)-2-methyl-3-(pyridin-2-yl)cyclopropane-1-carboxamide]
IC50: 0.0813 nM

CC1C(C(=O)Nc2cc3cc(N4CCN(C5(C)COCC5O)CC4)c(Cl)cc3cn2)C1c1ccccn1 (single isomer, unassigned) [Ex-11.4, (1R,2R,3R, or 1R,2S,3R, or 1S,2R,3S, or 1S,2S,3S)-N-(7-chloro-6-(4-((3R,4R or 3S,4S)-4-hydroxy-3-methyltetrahydrofuran-3-yl)piperazin-1-yl)isoquinolin-3-yl)-2-methyl-3-(pyridin-2-yl)cyclopropane-1-carboxamide]
IC50: 0.977 nM

CC1(N2CCN(c3cc4cc(NC(=O)C5CCC5c5ccccn5)ncc4cc3Cl)CC2)COCC1O (single isomer, unassigned) [Ex-11.5, (1R,2R or 1S,2S)-N-(7-chloro-6-(4-((3R,4R or 3S,4S)-4-hydroxy-3-methyltetrahydrofuran-3-yl)piperazin-1-yl)isoquinolin-3-yl)-2-(pyridin-2-yl)cyclobutane-1-carboxamide]
IC50: 0.0813 nM

CC1(N2CCN(c3cc4cc(NC(=O)C5CCC5c5ccccn5)ncc4cc3Cl)CC2)COCC1O (single isomer, unassigned) [Ex-11.6, (1R,2R or 1S,2S)-N-(7-chloro-6-(4-((3R,4R or 3S,4S)-4-hydroxy-3-methyltetrahydrofuran-3-yl)piperazin-1-yl)isoquinolin-3-yl)-2-(pyridin-2-yl)cyclobutane-1-carboxamide]
IC50: 0.132 nM

CCc1cc2cnc(NC(=O)C3CC34CCOCC4)cc2cc1N1CCN(C2(C)COCC2O)CC1 (single isomer, unassigned) [Ex-12, (R or S)-N-(7-ethyl-6-(4-(4-(3R,4R or 3S,4S)-hydroxy-3-methyltetrahydrofuran-3-yl)piperazin-1-yl)isoquinolin-3-yl)-6-oxaspiro[2.5]octane-1-carboxamide]
IC50: 0.525 nM

Source: patent publication US12516039B2, “N-linked isoquinoline amides as LRRK2 inhibitors, pharmaceutical compositions, and uses thereof” (Merck Sharp & Dohme LLC, priority 2020, dated 2026)
